Laboratory results: patent US20230391772A1, “METHODS AND COMPOSITIONS FOR TARGETED PROTEIN DEGRADATION” (Ranok Therapeutics (Hangzhou) Co. Ltd., priority 2020, published 2023)

Experiments:
HSP90a protein = biological target: T1, HSP90a protein (Homo sapiens, UniProt P07900); assay: HSP90α-binding fluorescent polarization (FP) assay, BODIPY-labeled RNK04010 probe; details: FP competition with RNK04010 (BODIPY-labeled), 5 nM, 300 min at 25° C.
T1 construct: purchased BPS Bioscience 50298
Procedure, shortened: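 N-terminal HSP90a construct; tracer 5 nM final (FITC-geldanamycin or BODIPY-RNK04010, a labeled triazolone binder). Compounds 20 μM–5.2 nM, 2.5-fold steps. 25° C, 120 min (FITC) / 300 min (BODIPY). FP readout.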

[1] = test system: MIA PaCa-2 human pancreatic carcinoma; assay: MIA PaCa-2 CCK-8 proliferation assay; assay type: cell-based; details: Homo sapiens, MIA PaCa-2, 72 h, MIA PaCa-2 cells
Procedure, shortened: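 KRAS(G12C) lines were used: MIA PaCa-2 with 2 copies, and NCI-H358 and NCI-H23 with 1 copy each. Cells were treated with 3-fold compound dilutions from 20 μM to 1.02 nM, and proliferation was read by CCK-8 absorbance. % inhibition was calculated against DMSO-treated cells after subtracting the cell-free medium blank.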

KRAS(G12C) = KRAS(G12C) (Homo sapiens, UniProt P01116, G12C); assay: KRAS(G12C)/SOS1 homogeneous time-resolved fluorescence (HTRF) assay; parameters: purchased Cisbio 63ADK000CB16PEG; details: absence of GTP, 4° C. for 3 hr, read-out: KRAS (G12C) binding
Procedure, shortened: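 Three-hour incubation at 4 °C of 3-fold compound dilutions (lowest 1.02 nM) with KRAS(G12C), SOS1 and detection reagents, GTP absent. Disruption of the KRAS(G12C)/SOS1 complex detected by time-resolved fluorescence.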

Sequence of KRAS(G12C) (P01116 1-188 isoform P01116-2 G12C): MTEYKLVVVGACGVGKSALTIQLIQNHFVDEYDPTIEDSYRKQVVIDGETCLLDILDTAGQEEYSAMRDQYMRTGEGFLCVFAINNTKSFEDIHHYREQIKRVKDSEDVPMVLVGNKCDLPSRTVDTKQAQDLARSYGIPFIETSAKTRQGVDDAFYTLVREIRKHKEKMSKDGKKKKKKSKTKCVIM

Row | SMILES | IC50 (HSP90a protein) [nM] | EC50 [1] [nM] | IC50 (KRAS(G12C)) [nM]
1 | C=CC(=O)N1CCN(c2nc(OCCN3CCC4(CC3)CCN(C(=O)C3CCN(Cc5ccc(-n6c(O)nnc6-c6cc(C(C)C)c(O)cc6O)cc5)CC3)CC4)nc3c2CCN(c2cccc4cccc(Cl)c24)C3)C[C@@H]1CC#N [Compound 218, (S)-2-(1-acryloyl-4-(7-(8-chloronaphthalen-1-yl)-2-(2-(9-(1-(4-(3-(2,4-dihydroxy-5-isopropylphenyl)-5-hydroxy-4H-1,2,4-triazol-4-yl)benzyl)piperidine-4-carbonyl)-3,9-diazaspiro[5.5]undecan-3-yl)ethoxy)-5,6,7,8-tetrahydropyrido[3,4-d]pyrimidin-4-yl)piperazin-2-yl)acetonitrile] | < 100 | > 1000 | < 100
2 | C=CC(=O)N1CCN(c2nc(OCC3CN(C(=O)c4ccc(-n5c(O)nnc5-c5cc(C(C)C)c(O)cc5O)cc4)C3)nc3c2CCN(c2cccc4cccc(Cl)c24)C3)C[C@@H]1CC#N [Compound 221, (S)-2-(1-acryloyl-4-(7-(8-chloronaphthalen-1-yl)-2-((1-(4-(3-(2,4-dihydroxy-5-isopropylphenyl)-5-hydroxy-4H-1,2,4-triazol-4-yl)benzoyl)azetidin-3-yl)methoxy)-5,6,7,8-tetrahydropyrido[3,4-d]pyrimidin-4-yl)piperazin-2-yl)acetonitrile] | < 100 | > 1000 | > 1000
3 | C=CC(=O)N1CCN(c2nc(OCCN3CCN(C(=O)C4CCN(Cc5ccc(-n6c(C(=O)NCC(F)(F)F)nnc6-c6cc(C)c(O)cc6O)cc5)CC4)CC3)nc3c2CCN(c2cccc4cccc(Cl)c24)C3)C[C@@H]1CC#N [Compound 222, (S)-4-(4-((4-(4-(2-((4-(4-acryloyl-3-(cyanomethyl)piperazin-1-yl)-7-(8-chloronaphthalen-1-yl)-5,6,7,8-tetrahydropyrido[3,4-d]pyrimidin-2-yl)oxy)ethyl)piperazine-1-carbonyl)piperidin-1-yl)methyl)phenyl)-5-(2,4-dihydroxy-5-methylphenyl)-N-(2,2,2-trifluoroethyl)-4H-1,2,4-triazole-3-carboxamide] | < 100 | 100 to 1000 | 100 to 1000
4 | C=CC(=O)N1CCN(c2nc(OC[C@@H]3CCCN(C(=O)C4CCN(Cc5ccc(-n6c(O)nnc6-c6cc(C(C)C)c(O)cc6O)cc5)CC4)C3)nc3c2CCN(c2cccc4cccc(Cl)c24)C3)C[C@@H]1CC#N [Compound 293, 2-((S)-1-acryloyl-4-(7-(8-chloronaphthalen-1-yl)-2-(((R)-1-(1-(4-(3-(2,4-dihydroxy-5-isopropylphenyl)-5-hydroxy-4H-1,2,4-triazol-4-yl)benzyl)piperidine-4-carbonyl)piperidin-3-yl)methoxy)-5,6,7,8-tetrahydropyrido[3,4-d]pyrimidin-4-yl)piperazin-2-yl)acetonitrile] | < 100 | 100 to 1000 | > 1000
5 | C=CC(=O)N1CCN(c2nc(OC[C@@H]3C[C@@H](OC(=O)N4CCN(Cc5ccc(-n6c(O)nnc6-c6cc(CC)c(O)cc6O)cc5)CC4)CN3C)nc3c2CCN(c2cccc4cccc(Cl)c24)C3)C[C@@H]1CC#N [Compound 294, (3R,5S)-5-(((4-((S)-4-acryloyl-3-(cyanomethyl)piperazin-1-yl)-7-(8-chloronaphthalen-1-yl)-5,6,7,8-tetrahydropyrido[3,4-d]pyrimidin-2-yl)oxy)methyl)-1-methylpyrrolidin-3-yl 4-(4-(3-(5-ethyl-2,4-dihydroxyphenyl)-5-hydroxy-4H-1,2,4-triazol-4-yl)benzyl)piperazine-1-carboxylate] | < 100 | > 1000 | > 1000
6 | C=CC(=O)N1CCN(c2nc(OC[C@@H]3C[C@@H](OC(=O)NCc4ccc(-n5c(O)nnc5-c5cc(CC)c(O)cc5O)cc4)CN3C)nc3c2CCN(c2cccc4cccc(Cl)c24)C3)C[C@@H]1CC#N [Compound 295, (3R,5S)-5-(((4-((S)-4-acryloyl-3-(cyanomethyl)piperazin-1-yl)-7-(8-chloronaphthalen-1-yl)-5,6,7,8-tetrahydropyrido[3,4-d]pyrimidin-2-yl)oxy)methyl)-1-methylpyrrolidin-3-yl 4-(3-(5-ethyl-2,4-dihydroxyphenyl)-5-hydroxy-4H-1,2,4-triazol-4-yl)benzylcarbamate] | < 100 | > 1000 | 100 to 1000
7 | C=CC(=O)N1CCN(c2nc(OC[C@@H]3CC[C@H](COC(=O)NCc4ccc(-n5c(O)nnc5-c5cc(CC)c(O)cc5O)cc4)N3C)nc3c2CCN(c2cccc4cccc(Cl)c24)C3)C[C@@H]1CC#N [Compound 296, ((2R,5S)-5-(((4-((S)-4-acryloyl-3-(cyanomethyl)piperazin-1-yl)-7-(8-chloronaphthalen-1-yl)-5,6,7,8-tetrahydropyrido[3,4-d]pyrimidin-2-yl)oxy)methyl)-1-methylpyrrolidin-2-yl)methyl4-(3-(5-ethyl-2,4-dihydroxyphenyl)-5-hydroxy-4H-1,2,4-triazol-4-yl)benzylcarbamate] | < 100 | > 1000 | 100 to 1000
8 | C=CC(=O)N1CCN(c2nc(OCC3CCC(COCC(=O)N4CCN(Cc5ccc(-n6c(O)nnc6-c6cc(CC)c(O)cc6O)cc5)CC4)N3)nc3c2CCN(c2cccc4cccc(Cl)c24)C3)C[C@@H]1CC#N (stereo partly drawn) [Compound 297, 2-((2S)-1-acryloyl-4-(7-(8-chloronaphthalen-1-yl)-2-((5-((2-(4-(4-(3-(5-ethyl-2,4-dihydroxyphenyl)-5-hydroxy-4H-1,2,4-triazol-4-yl)benzyl)piperazin-1-yl)-2-oxoethoxy)methyl)pyrrolidin-2-yl)methoxy)-5,6,7,8-tetrahydropyrido[3,4-d]pyrimidin-4-yl)piperazin-2-yl)acetonitrile] | < 100 | > 1000 | > 1000
9 | C=CC(=O)N1CCN(c2nc(OCC3CCC(CN4CCC(Cc5ccc(-n6c(C(=O)NCC(F)(F)F)nnc6-c6cc(C(C)C)c(O)cc6O)cc5)CC4)N3)nc3c2CCN(c2cccc4cccc(Cl)c24)C3)C[C@@H]1CC#N (stereo partly drawn) [Compound 298, 4-(4-((1-((5-(((4-((S)-4-acryloyl-3-(cyanomethyl)piperazin-1-yl)-7-(8-chloronaphthalen-1-yl)-5,6,7,8-tetrahydropyrido[3,4-d]pyrimidin-2-yl)oxy)methyl)pyrrolidin-2-yl)methyl)piperidin-4-yl)methyl)phenyl)-5-(2,4-dihydroxy-5-isopropylphenyl)-N-(2,2,2-trifluoroethyl)-4H-1,2,4-triazole-3-carboxamide] | < 100 | 100 to 1000 | > 1000
10 | C=CC(=O)N1CCN(c2nc(OCC3CCC(CNCc4ccc(-n5c(O)nnc5-c5cc(CC)c(O)cc5O)cc4)N3)nc3c2CCN(c2cccc4cccc(Cl)c24)C3)C[C@@H]1CC#N (stereo partly drawn) [Compound 299, 2-((2S)-1-acryloyl-4-(7-(8-chloronaphthalen-1-yl)-2-((5-(((4-(3-(5-ethyl-2,4-dihydroxyphenyl)-5-hydroxy-4H-1,2,4-triazol-4-yl)benzyl)amino)methyl)pyrrolidin-2-yl)methoxy)-5,6,7,8-tetrahydropyrido[3,4-d]pyrimidin-4-yl)piperazin-2-yl)acetonitrile] | < 100 | > 1000 | 100 to 1000
